Results on twelve compounds are retold here after patent publication US12606533B2, “3-phenylpropylamine derivative” (DAIICHI SANKYO COMPANY, LIMITED, priority 2023, dated 2026).

Structures can show the parent of a compound that is named as a salt.

One assay concerns the target SF1-LBD (Homo sapiens, UniProt Q13285). Nature of the assay: Inhibitory activity against binding of DAX1 to SF1-LBD (AlphaLISA). Conditions: inhibition of binding of DAX1 peptide to His-SF1-LBD, read-out: cell-free SF1 IC50. The method, then: The binding activity of each compound to the SF-1 ligand binding domain (LBD) was evaluated using the binding inhibitory activity of each compound against binding of DAX1 to SF1-LBD as an index. 100 nM His-SF1-LBD, 2 nM Biotin-DAX1 peptide (Biotin-[…]-NH2) and each compound (8-point i1 dilution series with common ratio 2 from final concentration 2 μM) were mixed in assay buffer [25 mM HEPES (pH 7.5), 100 mM NaCl, 0.1% BSA, 0.01% CHAPS, 1 mM DTT] and reacted at room temperature for 30 min. Anti-6×His AlphaLISA Acceptor beads and Streptavidin-coated AlphaScreen Donor beads were mixed to a final concentrations of 5 μg/ml and 10 μg/ml, respectively, and reacted in the dark at room temperature for 60 min. AlphaLISA signals were detected using a multimode plate reader (EnVision Xcite, PerkinElmer). The binding rate of DAX1 peptide to SF1 was calculated from the luminescence amount (C) of the compound-free group and the luminescence amount (T) of the compound-added group, based on the following formula.
The DAX1 peptide binding rate at each concentration was analyzed using GraphPad Prism6 (GraphPad Software Inc.) to calculate the concentration (IC50 value) of each compound that inhibits 50% of the binding of DAX1 to SF1-LBD.

The next assay deals with CYP11A1. Description: Changes in SF1 target gene expression for NCI-H295R: CYP11A1 mRNA (qPCR). Type of assay: cell-based. Particulars: Homo sapiens, NCI-H295R cells, 24 hr. The method, then: (§1) NCI-H295R cells were cultured in a 5% CO2 incubator at 37° C. using DMEM/F12 medium (Thermo Fisher Scientific Inc.) containing 2.5% Nu-Serum (registered trademark) Growth Medium Supplement (Corning) and 1% Corning ITS+ Premix Universal Culture Supplement (Corning). The DMSO solution of each compound was serially diluted with DMSO using a D300e Digital Dispenser (TECAN), and the compounds were added to a 96-well plate (FALCON). NCI-H295R cells were seeded at 1×10^4 cells/50 μL/well on the 96-well plate containing the compounds added thereto, and cultured for 24 hr in a 5% CO2 incubator at 37° C. The final DMSO concentration in the medium was adjusted to 0.1% (v/v) in all cases, and the concentration range of the compounds was set to 1000 nM to 0.32 nM with a common ratio […]. After the completion of culture, the medium was discarded, 50 μL/well of chilled D-PBS (Sigma Aldrich) was added to wash the cells, and D-PBS was discarded. After washing, 25 μL/well of Cells-to-CT (registered trademark) Bulk Lysis Reagents (Thermo Fisher Scientific, Inc.) was added to the wells, the mixture was stirred for 5 min with a plate mixer, and 2.5 μL/well of the reaction quenching liquid was added to prepare cell lysate. The cell lysate was dispensed into a 96-well plate (Corning) at 10 μL/well, and 40 μL/well of Cells-to-CT Bulk RT Reagents (Thermo Fisher Scientific, Inc.) was added. A reverse transcription reaction was performed at 37° C. for 50 min using a thermal cycler, and the reverse transcriptase was inactivated by heating at 95° C. for 5 min, and then stored at 10° C. PrimeTime (registered trademark) Gene Expression Master Mix (Integrated DNA Technologies), the target genes CYP11A1, CYP17A1, CYP21A2, or STAR, and the control gene ACTB PrimeTime (registered trademark) qPCR Probe Assays (Integrated DNA Technologies), and Nuclease free water were mixed at a ratio of 20:1:1:10 to prepare a PrimerProbe mix. The prepared PrimerProbe mix was added to a 384-well plate at 8 μL/well, and the cDNA obtained by reverse transcription was added at 2 μL/well. Real-Time PCR was performed under fast cycling conditions (95° C. for 3 min, followed by 40 cycles of 95° C. for 5 seconds and 62° C. for 30 seconds) to measure the fluorescent signal. The obtained data was analyzed using GraphPad Prism9 (GraphPad Software Inc.) to calculate the concentration (IC50 value) that reduces the mRNA expression level by 50%. The IC50 values (unit: nM) for CYP11A1, CYP17A1, CYP21A2, and STAR, of the compounds corresponding to each Example number are shown in Table 94.

For another assay, the system named is CYP17A1. Nature of the assay: Changes in SF1 target gene expression for NCI-H295R: CYP17A1 mRNA (qPCR). It is filed as cell-based. Conditions: Homo sapiens, NCI-H295R cells, 24 hr. As to the method: as §1
Another assay has as its system CYP21A2. Nature of the assay: Changes in SF1 target gene expression for NCI-H295R: CYP21A2 mRNA (qPCR). Type of assay: cell-based. Conditions: Homo sapiens, NCI-H295R cells, 24 hr. The method, then:
as §1

Another assay concerns STAR. Description: Changes in SF1 target gene expression for NCI-H295R: STAR mRNA (qPCR). Type of assay: cell-based. Conditions: Homo sapiens, NCI-H295R cells, 24 hr. As to the method:
as §1

Sequence of SF1-LBD (Q13285 222-459 limits assumed): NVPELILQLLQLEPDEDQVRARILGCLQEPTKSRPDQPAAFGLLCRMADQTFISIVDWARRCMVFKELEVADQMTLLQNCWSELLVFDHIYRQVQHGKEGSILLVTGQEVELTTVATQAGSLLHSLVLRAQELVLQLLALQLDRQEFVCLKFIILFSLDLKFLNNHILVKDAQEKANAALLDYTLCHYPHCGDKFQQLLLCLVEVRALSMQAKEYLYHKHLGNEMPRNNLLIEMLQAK

`CC(C)Oc1ccc(C2(CCN(Cc3ccc(O[C@H]4CC[C@H](C(=O)O)CC4)cc3)C(=O)C(C)(C)C)CCOC(C)(C)C2)cc1` (stereo partly drawn) [Example F4, Trans-4-(4-{[(2,2-dimethylpropanoyl) (2-{2,2-dimethyl-4-[4-(propan-2-yloxy)phenyl]tetrahydro-2H-pyran-4-yl}ethyl)amino]methyl}phenoxy)cyclohexanecarboxylic acid]: the IC50 at SF1-LBD was determined as 31 nM; in the assay on CYP11A1, 14 nM; in the assay with CYP17A1, 166 nM; with CYP21A2 it was 23 nM; with STAR it was 69 nM.

As for `COc1ccc(C2(CCN(Cc3ccc(O[C@H]4CC[C@H](C(=O)NS(=O)(=O)N(C)C)CC4)cc3)C(=O)C(C)(C)C)CCOC(C)(C)C2)cc1` (stereo partly drawn) [Example H1, Trans-4-(4-{[(2,2-dimethylpropanoyl) {2-[4-(4-methoxyphenyl)-2,2-dimethyltetrahydro-2H-pyran-4-yl]ethyl}amino]methyl}phenoxy)-N-(dimethylsulfamoyl)cyclohexanecarboxamide], the IC50 at SF1-LBD was found to be 32 nM; with CYP11A1 it was 25 nM; with CYP17A1 it was 80 nM; in the assay with CYP21A2, 39 nM; in the assay with STAR it was 37 nM.

Regarding `COc1ccc(C2(CCN(Cc3ccc(O[C@H]4CC[C@H](C(=O)O)CC4)cc3)c3ccccn3)CCOC(C)(C)C2)cc1` (stereo partly drawn) [Example I2, trans-4-(4-{[{2-[4-(4-Methoxyphenyl)-2,2-dimethyltetrahydro-2H-pyran-4-yl]ethyl}(pyridin-2-yl)amino]methyl}phenoxy)cyclohexanecarboxylic acid], the IC50 on SF1-LBD stood at 47 nM; in the assay on CYP11A1 it was 29 nM; with CYP17A1 it was 117 nM; with CYP21A2, 52 nM; in the assay on STAR it was 55 nM.

With `CC1(C)CC(CCN(Cc2ccc(O[C@H]3CC[C@H](C(=O)O)CC3)cc2)C(=O)C(C)(C)C)(c2ccc(Cl)cc2)CCO1` (stereo partly drawn) [Example A6, Trans-4-(4-{[{2-[4-(4-chlorophenyl)-2,2-dimethyltetrahydro-2H-pyran-4-yl]ethyl)(2,2-dimethylpropanoyl)amino]methyl}phenoxy)cyclohexanecarboxylic acid], the IC50 was determined as 19 nM on SF1-LBD; 102 nM with CYP11A1; 283 nM in the assay with CYP17A1; 142 nM with CYP21A2; 159 nM with STAR.

Consider `COc1ccc(C2(CCN(Cc3ccc(Oc4ccc(N=S(C)(C)=O)cc4)cc3)C(=O)C(C)(C)C)CCOC(C)(C)C2)cc1` (stereo not drawn) [Example N2], for which the IC50 amounted to 41 nM at SF1-LBD; 19 nM with CYP11A1; 113 nM with CYP17A1; 30 nM in the assay on CYP21A2; 39 nM with STAR.

For the compound `CNc1ccc(C2(CCN(Cc3ccc(O[C@H]4CC[C@H](C(=O)O)CC4)cc3)C(=O)C(C)(C)C)CCOC(C)(C)C2)cc1` (stereo partly drawn) [Example L2, Trans-4-(4-{[(2-{2,2-dimethyl-4-[4-(methylamino)phenyl]tetrahydro-2H-pyran-4-yl}ethyl) (2,2-dimethylpropanoyl)amino]methyl}phenoxy)cyclohexanecarboxylic acid], the IC50 at SF1-LBD came out at 32 nM; in the assay with CYP11A1 it was 17 nM; in the assay with CYP17A1 it was 238 nM; in the assay on CYP21A2 it was 46 nM; in the assay with STAR, 83 nM.

As to `COc1ccc([C@]2(CCN(Cc3ccc(O[C@H]4CC[C@H](C(=O)O)CC4)cc3)CC(C)(C)C(F)(F)F)CCOC(C)(C)C2)cc1` [Example M5, Trans-4-(4-{[{2-[(4R)-4-(4-methoxyphenyl)-2,2-dimethyltetrahydro-2H-pyran-4-yl]ethyl)(3,3,3-trifluoro-2,2-dimethylpropyl)amino]methyl}phenoxy)cyclohexanecarboxylic acid], the IC50 at SF1-LBD stood at 18 nM; in the assay on CYP11A1, 2.8 nM; in the assay with CYP17A1, 13 nM; in the assay with CYP21A2 it was 4.3 nM; with STAR, 3.9 nM.

Regarding `COc1ccc([C@]2(CCN(Cc3ccc(O[C@H]4CC[C@H](CC(=O)O)CC4)nc3)CC(C)(C)C(F)(F)F)CCOC(C)(C)C2)cc1` [Example S4, {Trans-4-[(5-{[{2-[(4R)-4-(4-methoxyphenyl)-2,2-dimethyltetrahydro-2H-pyran-4-yl]ethyl}(3,3,3-trifluoro-2,2-dimethylpropyl)amino]methyl}pyridin-2-yl)oxy]cyclohexyl)acetic acid], the IC50 at SF1-LBD turned out to be 22 nM; with CYP11A1, 1.2 nM; with CYP17A1, 12 nM; in the assay on CYP21A2, 2.2 nM; in the assay with STAR it was 3.2 nM.

In the case of `CC1(C)CC(CCN(Cc2ccc(O[C@H]3CC[C@H](C(=O)O)CC3)cc2)C(=O)C(C)(C)C)(c2ccc(OC(F)(F)F)cc2)CCO1` (stereo partly drawn) [Example B5, Trans-4-(4-{[(2,2-dimethylpropanoyl) (2-{2,2-dimethyl-4-[4-(trifluoromethoxy)phenyl]tetrahydro-2H-pyran-4-yl}ethyl)amino]methyl}phenoxy)cyclohexanecarboxylic acid], the IC50 was found to be 20 nM at SF1-LBD; 10 nM in the assay on CYP11A1; 56 nM in the assay with CYP17A1; 17 nM with CYP21A2; 24 nM with STAR.

For the compound `COc1ccc([C@]2(CCN(Cc3ccc(C4=CC[C@H](CO)CC4)cc3)CC(C)(C)C(F)(F)F)CCOC(C)(C)C2)cc1` [Example W5, [(4R)-4′-{[{2-[(4R)-4-(4-Methoxyphenyl)-2,2-dimethyltetrahydro-2H-pyran-4-yl]ethyl)(3,3,3-trifluoro-2,2-dimethylpropyl)amino]methyl}-2,3,4,5-tetrahydro[biphenyl]-4-yl]methanol], the IC50 in the assay with CYP11A1 came to 90 nM; in the assay with CYP17A1, 372 nM; in the assay with CYP21A2 it was 138 nM; in the assay on STAR, 131 nM.

As for `COc1ccc([C@]2(CCN(Cc3ccc(C4=CC[C@H](CN5CCN(C(=O)OC(C)(C)C)CC5)CC4)cc3)CC(C)(C)C(F)(F)F)CCOC(C)(C)C2)cc1` [Example X2, tert-Butyl 4-{[(4R)-4′-{[{2-[(4R)-4-(4-methoxyphenyl)-2,2-dimethyltetrahydro-2H-pyran-4-yl]ethyl)(3,3,3-trifluoro-2,2-dimethylpropyl)amino]methyl}-2,3,4,5-tetrahydro[biphenyl]-4-yl]methyl}piperazine-1-carboxylate], the IC50 came to 511 nM with CYP11A1, 1230 nM in the assay with CYP17A1, 581 nM in the assay on CYP21A2 and 776 nM in the assay on STAR.

Turning to `COc1ccc([C@]2(CCN(Cc3ccc(C4=CC[C@H](C(=O)O)CC4)c(F)c3)CC(C)(C)C(F)(F)F)CCOC(C)(C)C2)cc1` [Example V5, (4R)-2′-Fluoro-4′-{[{2-[(4R)-4-(4-methoxyphenyl)-2,2-dimethyltetrahydro-2H-pyran-4-yl]ethyl)(3,3,3-trifluoro-2,2-dimethylpropyl)amino]methyl}-2,3,4,5-tetrahydro[biphenyl]-4-carboxylic acid monohydrochloride], the IC50 was 9.8 nM in the assay with CYP11A1, 71 nM in the assay with CYP17A1, 21 nM in the assay with CYP21A2 and 18 nM in the assay on STAR.
